{"source": "patent US20230091170A1", "about": "“ENRICHMENT OF ANTIGEN-SPECIFIC ANTIBODIES FOR ANALYTIC AND THERAPEUTIC USE” (priority 2020, published 2023)", "origin": "cited, not measured here", "note": "Where two headings read alike, the source gives them in different places."}
{"molecule": "O=C(O)CCCC[C@@H]1SC[C@@H]2NC(=O)N[C@@H]21", "note": "[Biotin]", "values": [{"measurement": "Serum concentration of biotin", "setting": "after a single dose of 300 mg biotin", "value": "up to 1160 ng/mL"}, {"measurement": "Normal circulating concentrations of biotin", "setting": "derived from the diet and normal metabolism", "value": "< 1.2", "unit": "ng/mL"}, {"measurement": "Serum concentration of biotin", "setting": "within the first hour after ingestion, supplements of 20 mg biotin per day", "value": "up to 355 ng/mL"}]}
